Series [1] deals with spontaneously hypertensive rats. Briefly: Antihypertensive action, tail-cuff method, single oral dose. The series is classed as in vivo. The note with it: difference in blood pressure before and after administration; 10 mg/kg oral; an hour after the administration; two rats. The procedure: Measurement was conducted an hour after the administration. […] The antihypertensive action of each of […] nicardipine was also measured for comparison.

Series [2] has the same test system. Nature of the series: Antihypertensive action regarding administration amount, tail-cuff method. The class given is in vivo. The note with it: for ED (40 mmHg decrease): Rattus norvegicus, read-out: ED-40 mmHg; for T1/2(dose): time for recovery to 50 % of maximal effect (index of persistence). On the procedure:
Ten spontaneously hypertensive rats (10 - 20 week old) were used for this test. Blood pressure was measured in accordance with tail-cuff method by employing a blood pressure gauge for small animals UR-1000 (manufactured by Ueda Works, Ltd., Japan). […] The amount of each compound required for lowering the blood pressure of 40 mmHg decrease in blood pressure was calculated from the relationship between the administration amount and the blood pressure after adiministration (lowermost blood pressure). This amount was defined as ED-40 mmHg for serving as an index of antihypertensive action. Tz was shown as the time required for recovery to 50 % of maximal […]. This value was used for an index of persistence.

A further series can be described thus: in vivo. The note with it: oral, after a fast, 4-week old mouse, read-out: Toxicity (LD50). On the procedure:
After a fast, a ddy-mouse (4-week old) was orally given a solution obtained by dissolving and/or suspending the compound in each Example 18, 19 and 20 in dimethylsulfoxide (DMSO) or carboxymethylcellulose (CMC). The value of LD50 was calculated from the mortality.

The test system of the next series is thoracic aorta. Nature of the series: Calcium antagonism: relaxation of thoracic aorta helical strips contracted with hyperpotassium solution. The series is classed as cell-based, rabbit. The note with it: Oryctolagus cuniculus; concentration for 50 % relaxation; hyperpotassium solution (50 mM); relaxation with 10^-4 M papaverine defined as 100 %; read-out: Measured Value (IC50). On the procedure:
A thoracic aorta was removed from a rabbit to obtain a helical strips (width: 3 mm; length: 30 mm). This strip was suspended under a load of 0.5 g in a Magnus tube filled with Krebs-Henseleit solution. Subsequently, the Krebs-Henseleit solution was replaced with hyperpotassium solution (50 mM) to contract the strip. The strip was then left to stand until the contraction was stabilized. Thereafter, the compounds obtained in Examples 18, 19 and 20 and dissolved in ethanol-distilled water were added to the strip.
The concentration (IC50) of each compound required for obtaining relaxation of 50 % was measured. It is to be noted that the relaxation of a strip treated with 10-^4M papaverine was defined to 100 %.

The mark [3] stands for this setting: oral amount for a 40 mmHg decrease in blood pressure, suspended in 0.5 % carboxymethylcellulose, ten rats.

Counter-ions that a name gives are not always drawn. Like-named read-outs stand apart in the source and are kept apart here. Marks after values point to notes of the source that are not given here. A value given as a limit tells only on which side of the number the result lay.

This is an account of results in EP0479665A2, “1,4-Dihydropyridine derivatives, method for preparing the same and use thereof” (TEIKOKU CHEMICAL INDUSTRIES CO., LTD., priority 1990, dated 1992).

For “1,4-dihydro-2,6-dimethyl-4-(3'-nitrophenyl)-3,5-pyridinedicarboxylic acid methyl (1-piperidinylmethylcyclohexyl)methyl ester hydrochloride [Example 2]”, in series [1], the “Antihypertensive Action” value is -89 mmHg. Same read-out and setting: the result for `COC(=O)C1=C(C)NC(C)=C(C(=O)OCC2(CN(C)Cc3ccccc3)CCCCC2)C1c1cccc([N+](=O)[O-])c1.Cl` (racemic) [Example 1, 1,4-dihydro-2,6-dimethyl-4-(3'-nitrophenyl)-3,5-pyridinedicarboxylic acid 1-(N-benzyl-N-methylaminomethyl)cyclohexylmethyl methyl ester hydrochloride] reads -131 mmHg; that for `COC(=O)C1=C(C)NC(C)=C(C(=O)OCC2(CN3CCN(c4ccccc4)CC3)CCCCC2)C1c1cccc([N+](=O)[O-])c1` (racemic) [Example 3, 1,4-dihydro-2,6-dimethyl-4-(3'-nitrophenyl)-3,5-pyridinedicarboxylic acid methyl 1-(4-phenylpiperazinylmethyl)cyclohexylmethyl ester dihydrochloride.1/2 acetone adduct], -109 mmHg; that for `CC1=C(C(=O)OCC2(CN(C)C)CCCCC2)C(c2cccc([N+](=O)[O-])c2)C(C(=O)OC(C)C)=C(C)N1` (racemic) [Example 5], -68 mmHg. The same measure, in the same setting: for `CCOC(=O)C1=C(C)NC(C)=C(C(=O)OCC2(CN(C)Cc3ccccc3)CCCCC2)C1c1cccc([N+](=O)[O-])c1` (racemic) [Example 6, 1,4-dihydro-2,6-dimethyl-4-(3'-nitrophenyl)-3,5-pyridinedicarboxylic acid 1-(N-benzyl-N-methylaminomethyl)cyclohexylmethyl ethyl ester] the value was -110 mmHg.

On to `CCOC(=O)C1=C(C)NC(C)=C(C(=O)OCC2(CN(C)C)CCCCC2)C1c1cccc([N+](=O)[O-])c1` (racemic) [Example 7], for which the “Antihypertensive Action” value in series [1] is given as -61 mmHg.

Take `COC(=O)C1=C(C)NC(C)=C(C(=O)OCC2(CN(C)Cc3ccccc3)CCCCC2)C1c1cc([N+](=O)[O-])ccc1F` (racemic) [Example 8]: the “Antihypertensive Action” value in series [1] is reported as -140 mmHg. Same read-out and setting: for `COC(=O)C1=C(C)NC(C)=C(C(=O)OCC2(CN3CCN(Cc4ccccc4)CC3)CCCCC2)C1c1cccc([N+](=O)[O-])c1` (racemic) [Example 10] the value was -110 mmHg; for `COC(=O)C1=C(C)NC(C)=C(C(=O)OCC2(CN3CCN(C)CC3)CCCCC2)C1c1cccc([N+](=O)[O-])c1` (racemic) [Example 11], -74 mmHg; for `COC(=O)C1=C(C)NC(C)=C(C(=O)OCC2(CN3CCOCC3)CCCCC2)C1c1cccc([N+](=O)[O-])c1` (racemic) [Example 12], -113 mmHg. With `CCN(CC)CC1(COC(=O)C2=C(C)NC(C)=C(C(=O)OC)C2c2cccc([N+](=O)[O-])c2)CCCCC1` (racemic) [Example 13], in series [1], the “Antihypertensive Action” value is -108 mmHg. Take `COC(=O)C1=C(C)NC(C)=C(C(=O)OCC2(CN(C)Cc3ccc(F)cc3)CCCCC2)C1c1cccc([N+](=O)[O-])c1` (racemic) [Example 15]: the “Antihypertensive Action” value in series [1] is listed as -114 mmHg. The same measure, in the same setting: for `COC(=O)C1=C(C)NC(C)=C(C(=O)OCC2(CN(C)Cc3ccccc3Cl)CCCCC2)C1c1cccc([N+](=O)[O-])c1` (racemic) [Example 16] the value was -120 mmHg; for `COC(=O)C1=C(C)NC(C)=C(C(=O)OCC2(CN3CCN(C(c4ccccc4)c4ccccc4)CC3)CCCCC2)C1c1cccc([N+](=O)[O-])c1` (racemic) [Example 17], -112 mmHg.

On to `COC(=O)C1=C(C)NC(C)=C(C(=O)OCC2(CN(C)C)CCCCC2)C1c1cccc([N+](=O)[O-])c1` (single isomer, unassigned) [Example 21], for which, in series [1], the “Antihypertensive Action” value was -53 mmHg.

For `COC(=O)C1=C(C)NC(C)=C(C(=O)OCC2(CN(C)Cc3ccc(Cl)cc3)CCCCC2)C1c1cccc([N+](=O)[O-])c1` (single isomer, unassigned) [Example 22], in series [1], the “Antihypertensive Action” value was -122 mmHg. Same read-out and setting: for `COC(=O)C1=C(C)NC(C)=C(C(=O)OCC2(CN3CCOCC3)CCCCC2)C1c1cccc([N+](=O)[O-])c1` (single isomer, unassigned) [Example 23] the value was -87 mmHg; for `COC(=O)C1=C(C)NC(C)=C(C(=O)OCC2(CN3CCN(C)CC3)CCCCC2)C1c1cccc([N+](=O)[O-])c1` (single isomer, unassigned) [Example 24], -79 mmHg. For `COC(=O)C1=C(C)NC(C)=C(C(=O)OCC2(CN3CCN(Cc4ccccc4)CC3)CCCCC2)C1c1cccc([N+](=O)[O-])c1` (single isomer, unassigned) [Example 25], in series [1], the “Antihypertensive Action” value is reported as -98 mmHg. The same measure, in the same setting: for `COC(=O)C1=C(C)NC(C)=C(C(=O)OCC2(CN(C)Cc3ccc(F)cc3)CCCCC2)C1c1cccc([N+](=O)[O-])c1` (single isomer, unassigned) [Example 26] the value was -111 mmHg; for `CCN(Cc1ccccc1)CC1(COC(=O)C2=C(C)NC(C)=C(C(=O)OC)C2c2cccc([N+](=O)[O-])c2)CCCCC1` (single isomer, unassigned) [Example 27], -109 mmHg. Consider `COC(=O)C1=C(C)NC(C)=C(C(=O)OCC2(CN(C)Cc3ccccc3)CCCCC2)C1c1cccc([N+](=O)[O-])c1.Cl` (single isomer, unassigned; (+)) [Example 18, (+)-1,4-dihydro-2,6-dimethyl-4-(3'-nitro-phenyl)-3,5-pyridinedicarboxylic acid 1-(N-benzyl-N-methylaminomethyl)cyclohexylmethyl methyl ester hydrochloride], for which, in series [1], the “Antihypertensive Action” value is listed as -96 mmHg. In series [2] (setting [3]), the ED (40 mmHg decrease) was found to be 0.7 mg/kg. For the same compound, the “T1/2(dose)” value in series [2] (oral dose 3 mg/kg) was >6.0 hr(3 mg/kg)*. Moreover, in “in vivo” (medium DMSO), the LD50 is 130 mg/kg. In addition, in the series with thoracic aorta, the concentration for half-maximal inhibition (IC50) amounted to 100 nM. For `COC(=O)C1=C(C)NC(C)=C(C(=O)OCC2(CN3CCCCC3)CCCCC2)C1c1cccc([N+](=O)[O-])c1` (single isomer, unassigned; (+)) [Example 19, (+)-1,4-dihydro-2,6-dimethyl-4-(3'-nitro-phenyl)-3,5-pyridinedicarboxylic acid methyl (1-piperidinylmethylcyclohexyl)methyl ester hydrochloride], in that order: -75 mmHg, 0.5 mg/kg, >6.0 hr(3 mg/kg)*, 100 mg/kg and 1.5 nM. As to `COC(=O)C1=C(C)NC(C)=C(C(=O)OCC2(CN3CCN(c4ccccc4)CC3)CCCCC2)C1c1cccc([N+](=O)[O-])c1` (single isomer, unassigned; (+)) [Example 20, (+)-1,4-dihydro-2,6-dimethyl-4-(3'-nitro-phenyl)-3,5-pyridinedicarboxylic acid methyl 1-(4-phenylpiperazinylmethyl)cyclohexylmethyl ester dihydrochloride], the “Antihypertensive Action” value in series [1] was -129 mmHg. The ED (40 mmHg decrease) in series [2] (setting [3]) was found to be 0.3 mg/kg. Further, the “T1/2(dose)” value in series [2] (oral dose 1 mg/kg) is >6.0 hr(1 mg/kg)*. The LD50 in “in vivo” (medium CMC) was found to be 290 mg/kg. Also, the IC50 with thoracic aorta is 420 nM.

In the case of `COC(=O)C1=C(C)NC(C)=C(C(=O)OCCN2CCN(C(c3ccccc3)c3ccccc3)CC2)C1c1cccc([N+](=O)[O-])c1` (stereo not drawn) [Manidipine, reference compound], the ED (40 mmHg decrease) in series [2] (setting [3]) was 1.7 mg/kg. Moreover, in series [2] (oral dose 3 mg/kg), the “T1/2(dose)” value was 5.0 hr(3 mg/kg)*. The LD50 in the series “in vivo” (medium CMC) was 200 mg/kg. Further, in the series with thoracic aorta, the IC50 came to 27 nM. For the compound `COC(=O)C1=C(C)NC(C)=C(C(=O)OCCN(C)Cc2ccccc2)C1c1cccc([N+](=O)[O-])c1` (stereo not drawn) [Nicardipine, nicardipine, reference compound], the “Antihypertensive Action” value in series [1] was -77 mmHg. In series [2] (setting [3]), the ED (40 mmHg decrease) came to 2.6 mg/kg. For the same compound, the “T1/2(dose)” value in series [2] (oral dose 10 mg/kg) is 4.5 hr(10mg/kg)*. In addition, the LD50 in the series “in vivo” (medium DMSO) was 190 mg/kg. In addition, the IC50 in the series on thoracic aorta is 6.8 nM. As to `COC(=O)C1=C(C)NC(C)=C(C(=O)OC)C1c1ccccc1[N+](=O)[O-]` [Nifedipine, nifedipine, reference compound], the “Antihypertensive Action” value in series [1] was -58 mmHg. The ED (40 mmHg decrease) in series [2] (po) stood at 3.3 mg/kg. For the same compound, the IC50 with thoracic aorta was determined as 29 nM.
